Results: article PMC11859031, “Assessment of the In Vitro Biological Activities of Schiff Base-Synthesized Copper Oxide Nanoparticles as an Anti-Diabetic, Anti-Alzheimer, and Anti-Cancer Agent” (Pharmaceutics, 2025)
Converted amounts (≈) assume the structure as drawn.

Key:
NO radical scavenging = conditions: mean ± SE, n = 3
Procedure: The in vitro biological applications of the SB and SB-CuO-NPs, including antioxidant, scavenging, anti-diabetic, anti-Alzheimer, anti-arthritic, anti-inflammatory, cytotoxic effects, and enzyme inhibition, were assessed using methods described in the literature (See Supplementary Materials).
During the current study, the free radical scavenging capacity of SB-CuO-NPs, SB, and ascorbic acid (positive control) was evaluated using the DPPH, ABTS, and NO radical methods. The scavenging activity is used to predict antioxidant efficacy, a mechanism in which antioxidants inhibit lipid oxidation. The lower IC50 value indicates a stronger ability of the SB-CuO-NPs to act as radical scavengers, whereas the higher IC50 value indicates a lower scavenging activity. […] The lower the IC50 value, the greater the antioxidant activity.

[1] = Total antioxidant capacity (TAC), phosphomolybdenum method; conditions: samples at 100 µg/mL; mean ± SE, n = 3
Procedure: 1. Preparation of SB-CuO-NPs
The copper oxide nanoparticles (CuO-NPs) were biosynthesized using a concentrated anhydrous copper sulfate solution (1 mM) as a metal precursor based […]
dissolved in 100 ml of deionized water to form a 0.1 M concentration. The Schiff base (SB) was mixed with the metal solution in a ratio of 4:1. The SB-CuO-NPs was monitored by a color change. They were dried at 80 °C after centrifuging the colloidal solution at 4000 rpm for 15 min.
2. Characterization of the SB-CuO-NPs
The spectra of the SB-CuO-NPs were characterized using a Shimadzu UV-VIS recording spectrophotometer UV-240 after diluting the samples (10-fold) with deionized water at λ 200 - 800 nm. Their surface zeta potentials were measured using the laser zeta meter (Malvern Zetasizer 2000, Malvern, Worcestershire, UK) following […]
Moreover, their average hydrodynamic sizes were determined using the laser diffraction method with multiple scattering techniques employing dynamic light scattering (DLS) (Malvern Zetasizer Nano ZS, Malvern Instruments Ltd., Malvern, United Kingdom) (Murdock et al., 2008). […]
All biological activities were assessed in the prepared samples at equal concentrations (100 µg/mL). […]
After cooling to room temperature, the absorbance was measured at 695 nm against the blank. […] The antioxidant capacity was expressed as mg gallic acid equivalent per gram weight. […]

[2] = Iron reducing power (IRP); conditions: samples at 100 µg/mL; mean ± SE, n = 3
Procedure: ammonium molybdate. Methanol (80%) was used in place of the sample for the blank. The tubes were sealed and incubated in a boiling water bath for 90 minutes.
After cooling to room temperature, the absorbance was measured at 695 nm against the blank. […] was used at the same concentrations as a standard. The antioxidant capacity was expressed as mg gallic acid equivalent per gram weight.
The iron reducing power was determined as µg/mL using the method proposed by Oyaizu (1986). In brief, 1ml of the tested sample (at each concentration) was combined with 1mL of 200mM sodium phosphate buffer (pH 6.6) and 1mL of 1% potassium ferricyanide. […] The absorbance was measured at 700nm against a blank prepared without the sample. […] A high absorbance at 700nm indicates a higher reducing power in the reaction mixture.
(§1) The 1,1-Diphenyl-2-picryl-hydrazyl (DPPH) radical scavenging activities were evaluated using the method described by Rahman et al. An antioxidant substance capable of donating a hydrogen atom to a solution containing DPPH- can reduce the stable free radical, causing the solution to change color from violet to pale yellow.
The remaining DPPH- radical was quantified by measuring the intensity of a light-purple colored DPPH methanol solution in the visible range at 518 nm using a spectroscopic method. […]

DPPH radical scavenging = conditions: mean ± SE, n = 3
Procedure: as §1
The remaining DPPH- radical was quantified by measuring the intensity of a light-purple colored DPPH methanol solution in the visible range at 518 nm using a spectroscopic method. Two mill iliters of a DPPH solution (100 µ M) in ethanol were mixed with 2 mL of the sample (at each concentration). The reaction mixture for each concentration was thoroughly vortexed and then incubated in the dark at room temperature for 30 minutes. The absorbance was then measured spectrophotometrically at 518 nm against a blank (ethanol). For the control, 2 mL of ethanol was added instead of the sample and run simultaneously with the test.
Ascorbic acid was used at the same concentrations as a positive control. P ercent […]
inhibition of the DPPH free radical was calculated. […]

ABTS radical scavenging = conditions: mean ± SE, n = 3
Procedure: The procedure for the 2,2'-azinobis-(3-ethylbenzothiazoline-6-sulfonic acid) (ABTS) […]
solution (7 mM) and potassium persulfate solution (2.4 mM). The working solution was prepared by mixing the two stock solutions in equal quantities and allowing them to react at room temperature in a dark place for 14 hours. The solution was then diluted by mixing 1 mL of ABTS solution with 60 mL of methanol to obtain an absorbance of 0.706 ± 0.01 units at 734 nm using a spectrophotometer. Fresh ABTS solution was prepared for each assay. The tested samples (at each concentration) were allowed to react with 1 mL of the ABTS solution, and the absorbance was taken at 734 nm after 7 minutes using a spectrophotometer. […]

[3] = tested on: caspase-3 in Caco-2 cells; assay: Caspase-3 ELISA in treated Caco-2 cells; format: cell-based, human; conditions: Caco-2 cells treated at the IC50 value, mean ± SE, n = 3
Procedure: (§2) Following the treatment of HepG-2, Caco-2, A549, and BJ-1 cells with the SB-CuO-NPs at their respective IC50 values, as illustrated in Figure 9 and detailed in Table 5, an assessment of the activities of the caspase-3 and Bcl-2 enzymes was conducted in the treated cells. […] This mechanism ultimately triggers apoptosis. Additionally, the increased activity of caspase-3 results in a decrease in the expression of cyclin D1 and CDK-2 mRNA, thereby promoting the arrest of the G1 phase of the cell cycle. Othman et al. further noted that the biosynthesized M-NPs facilitate apoptosis by inhibiting the expression of the PI3K/AKT and Ras/Raf/ERK protein signaling pathways.
(§3) Invitrogen Corporation, following the manufacturer's instructions.

caspase-3 in BJ-1 cells = assay: Caspase-3 ELISA in treated BJ-1 cells; format: cell-based, human; conditions: BJ-1 cells treated at the IC50 value, mean ± SE, n = 3
Procedure: as §2, §3

[4] = tested on: human lung cancer (A549) cell line; assay: MTT cytotoxicity, A549
caspase-3 in A549 cells = assay: Caspase-3 ELISA in treated A549 cells; format: cell-based, human; conditions: A549 cells treated at the IC50 value, mean ± SE, n = 3
Procedure: as §2, §3

Bcl-2 in A549 cells = assay: Bcl-2 ELISA in treated A549 cells; format: cell-based, human; conditions: A549 cells treated at the IC50 value, mean ± SE, n = 3
Procedure: as §2, §3

[5] = tested on: normal human fibroblast (BJ-1) cell line; assay: MTT cytotoxicity, BJ-1; conditions: Homo sapiens, Fibroblast, 48 h, read-out: Median Inhibitory Concentration (IC50) BJ-1
MTT cytotoxicity, BJ-1 = conditions: human, BJ-1 normal fibroblast cells
[6] = tested on: human hepatocellular carcinoma (HepG-2) cell line; assay: MTT cytotoxicity, HepG-2
Bcl-2 in BJ-1 cells = assay: Bcl-2 ELISA in treated BJ-1 cells; format: cell-based, human; conditions: BJ-1 cells treated at the IC50 value, mean ± SE, n = 3
Procedure: as §2, §3

[7] = tested on: human colon cancer (Caco-2) cell line; assay: MTT cytotoxicity, Caco-2
Bcl-2 in HepG-2 cells = assay: Bcl-2 ELISA in treated HepG-2 cells; format: cell-based, human; conditions: HepG-2 cells treated at the IC50 value, mean ± SE, n = 3
Procedure: as §2, §3

[8] = tested on: caspase-3 in HepG-2 cells; assay: Caspase-3 ELISA in treated HepG-2 cells; format: cell-based, human; conditions: HepG-2 cells treated at the IC50 value, mean ± SE, n = 3
Procedure: as §2, §3

Bcl-2 in Caco-2 cells = assay: Bcl-2 ELISA in treated Caco-2 cells; format: cell-based, human; conditions: Caco-2 cells treated at the IC50 value, mean ± SE, n = 3
Procedure: as §2, §3

[9] = target: T1, 5-LOX enzyme (human recombinant) (Homo sapiens, UniProt P09917); assay: 5-Lipoxygenase inhibition assay; format: biochemical; conditions: at 100 µg/mL; mean ± SE, n = 3; read-out: 5-LOX Inhib. (%)
T1 construct: purchased Sigma-Aldrich 437996
T1 sequence (P09917 1-674): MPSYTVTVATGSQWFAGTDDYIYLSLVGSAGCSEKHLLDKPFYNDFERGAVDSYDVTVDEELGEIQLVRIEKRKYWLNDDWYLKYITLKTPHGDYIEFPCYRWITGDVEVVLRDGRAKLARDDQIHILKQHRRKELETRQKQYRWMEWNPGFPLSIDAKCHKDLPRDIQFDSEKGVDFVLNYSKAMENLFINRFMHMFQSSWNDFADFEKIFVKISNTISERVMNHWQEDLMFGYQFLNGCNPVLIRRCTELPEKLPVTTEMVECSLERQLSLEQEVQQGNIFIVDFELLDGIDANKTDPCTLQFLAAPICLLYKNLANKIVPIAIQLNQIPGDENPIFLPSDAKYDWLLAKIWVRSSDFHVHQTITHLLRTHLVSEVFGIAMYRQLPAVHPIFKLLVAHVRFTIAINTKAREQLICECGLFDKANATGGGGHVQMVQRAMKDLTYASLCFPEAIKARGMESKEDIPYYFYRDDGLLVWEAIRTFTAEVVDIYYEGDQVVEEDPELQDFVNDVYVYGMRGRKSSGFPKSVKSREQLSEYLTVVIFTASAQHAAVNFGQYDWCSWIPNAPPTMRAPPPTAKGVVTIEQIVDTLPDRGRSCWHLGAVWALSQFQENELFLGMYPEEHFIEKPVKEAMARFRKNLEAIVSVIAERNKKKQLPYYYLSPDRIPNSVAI

Compound: O=C1O[C@H]([C@@H](O)CO)C(O)=C1O [Ascorbic Acid, reference compound]
- Scavenging activity NO Inhib. (%) (NO radical scavenging; at 100 µg/mL): 53.93 ± 0.12%
- Scavenging activity NO IC50 (NO radical scavenging): 5.24 ± 0.02 µg/mL
- Antioxidant activity TAC [1]: 83.75 ± 0.13 mg gallic acid/g
- Antioxidant activity IRP [2]: 66.00 ± 0.13 µg/mL
- Scavenging activity DPPH Inhib. (%) (DPPH radical scavenging; at 100 µg/mL): 61.68 ± 0.12%
- Scavenging activity DPPH IC50 (DPPH radical scavenging): 4.50 ± 0.03 µg/mL
- Scavenging activity ABTS Inhib. (%) (ABTS radical scavenging; at 100 µg/mL): 65.43 ± 0.12%
- Scavenging activity ABTS IC50 (ABTS radical scavenging): 3.99 ± 0.04 µg/mL

Compound: COc1cccc2c1C(=O)c1c(O)c3c(c(O)c1C2=O)C[C@@](O)(C(=O)CO)C[C@@H]3O[C@H]1C[C@H](N)[C@H](O)[C@H](C)O1 [Doxorubicin, reference compound]
- Caspase-3 [3]: 265.13 ± 0.12 pg/mL
- Caspase-3 (caspase-3 in BJ-1 cells): 200.43 ± 0.08 pg/mL
- viability at 6.25 µg/mL ([4]; A549): 77.4%
- viability at 12.5 µg/mL ([4]; A549): 51%
- viability at 25 µg/mL ([4]; A549): 24.3%
- viability at 50 µg/mL ([4]; A549): 12.1%
- viability at 100 µg/mL ([4]; A549): 5.17%
- IC50 ([4]; A549, 48 h, read-out: Median Inhibitory Concentration (IC50) A549): 14.4 ± 1.12 µg/mL (≈ 26.4 µM)
- Caspase-3 (caspase-3 in A549 cells): 247.96 ± 0.08 pg/mL
- Bcl-2 (Bcl-2 in A549 cells): 4.51 ± 0.01 ng/mL
- IC50 [5]: 22 ± 1.51 µg/mL (≈ 40.5 µM)
- viability at 48 h, 6.25 μg/mL (MTT cytotoxicity, BJ-1): 87.4%
- viability at 48 h, 12.5 μg/mL (MTT cytotoxicity, BJ-1): 68%
- viability at 48 h, 25 μg/mL (MTT cytotoxicity, BJ-1): 42.3%
- viability at 48 h, 50 μg/mL (MTT cytotoxicity, BJ-1): 20.1%
- viability at 48 h, 100 μg/mL (MTT cytotoxicity, BJ-1): 13.2%
- viability at 6.25 µg/mL ([6]; HepG2): 74.4%
- viability at 12.5 µg/mL ([6]; HepG2): 59%
- viability at 25 µg/mL ([6]; HepG2): 34.3%
- viability at 50 µg/mL ([6]; HepG2): 18.1%
- viability at 100 µg/mL ([6]; HepG2): 9.17%
- IC50 ([6]; HepG2, 48 h, read-out: Median Inhibitory Concentration (IC50) HepG-2): 15.5 ± 1.98 µg/mL (≈ 28.5 µM)
- Bcl-2 (Bcl-2 in BJ-1 cells): 2.72 ± 0.01 ng/mL
- viability at 6.25 µg/mL ([7]; Caco-2): 70.2%
- viability at 12.5 µg/mL ([7]; Caco-2): 35.2%
- viability at 25 µg/mL ([7]; Caco-2): 5.64%
- viability at 50 µg/mL ([7]; Caco-2): 4.48%
- viability at 100 µg/mL ([7]; Caco-2): 1.3%
- IC50 ([7]; Caco-2, 48 h, read-out: Median Inhibitory Concentration (IC50) Caco-2): 11.1 ± 1.09 µg/mL (≈ 20.5 µM)
- Bcl-2 (Bcl-2 in HepG-2 cells): 4.00 ± 0.02 ng/mL
- Caspase-3 [8]: 306.04 ± 1.23 pg/mL
- Bcl-2 (Bcl-2 in Caco-2 cells): 2.04 ± 0.01 ng/mL

Compound: CC(c1cc2ccccc2s1)N(O)C(N)=O (centres unmarked) [Zileuton, reference compound]
- inhibition at 100 µg/mL [9]: 46.99 ± 0.13%
